# Reference: ChEMBL document CHEMBL4359817 (J Med Chem, 2019)
# Tests used:
# [1] = Lipophilicity, log D of the compound at pH 7.4; type: physicochemical; settings: buffer
# [2] = Intrinsic clearance in human hepatocytes assessed per million cells; type: ADME, cell-based, Hepatocyte; settings: read-out: CLH
# [3] = Intrinsic clearance in human microsomes; type: ADME, Microsome
# [4] = Intrinsic clearance in rat hepatocytes assessed per million cells; type: ADME, cell-based, Hepatocyte; settings: read-out: CLH
# [5] = Clearance in iv or po dosed Han Wistar rat; type: ADME, organism-based; settings: in vivo
# [6] = Volume of distribution at steady state in iv or po dosed Han Wistar rat; type: ADME, organism-based; settings: in vivo, read-out: Vdss
# [7] = Oral bioavailability in Han Wistar rat; type: ADME, organism-based; settings: in vivo
# [8] = Thermodynamic aqueous solubility of the compound at pH 7.4 using amorphous form of sample; type: physicochemical; settings: read-out: Therm_solubility
# [9] = Clearance in dog at 1 mg/kg, po or 0.5 mg/kg, iv; type: ADME, organism-based, Canis lupus familiaris; settings: in vivo
# [10] = Oral bioavailability in dog at 1 mg/kg; type: ADME, organism-based, Canis lupus familiaris; settings: in vivo
# [11] = Time at which plasma concentration stays above in vitro fGI50 for antiproliferative activity against human NCI-H1703 cells in nude mouse at 100 mg/kg, po; type: organism-based; settings: in vivo
# [12] = Thermodynamic aqueous solubility of the compound at pH 7.4; type: physicochemical; settings: read-out: Therm_solubility
# [13] = Time at which plasma concentration stays above in vitro fGI50 for antiproliferative activity against human NCI-H1703 cells in SCID mouse at 100 mg/kg, po; type: organism-based; settings: in vivo
# [14] = Time at which plasma concentration stays above in vitro fGI50 for antiproliferative activity against human NCI-H1703 cells in SCID mouse at 100 mg/kg, po administered twice daily; type: organism-based; settings: in vivo
# [15] = Clearance in Han Wistar rat at 1 mg/kg, po or 0.5 mg/kg, iv; type: ADME, organism-based; settings: in vivo
# [16] = Volume of distribution at steady state in Han Wistar rat at 1 mg/kg, po or 0.5 mg/kg, iv; type: ADME, organism-based; settings: in vivo, read-out: Vdss
# [17] = Oral bioavailability in Han Wistar rat at 1 mg/kg; type: ADME, organism-based; settings: in vivo
# [18] = Time at which plasma concentration stays above in vitro GI50 for antiproliferative activity against human NCI-H1703 cells in SCID mouse at 100 mg/kg, po; type: organism-based; settings: in vivo
# [19] = Clearance in CD1 mouse at 100 mg/kg, po; type: ADME, organism-based; settings: in vivo
# [20] = Clearance in Han Wistar rat at 2 mg/kg, po or 0.5 mg/kg, iv; type: ADME, organism-based; settings: in vivo
# [21] = Volume of distribution at steady state in Han Wistar rat at 2 mg/kg, po or 0.5 mg/kg, iv; type: ADME, organism-based; settings: in vivo, read-out: Vdss
# [22] = Oral bioavailability in Han Wistar rat at 2 mg/kg; type: ADME, organism-based; settings: in vivo
# [23] = Thermodynamic aqueous solubility of the compound at pH 7.4 using crystalline form of sample; type: physicochemical; settings: read-out: Therm_solubility
# [24] = Volume of distribution at steady state in dog at 1 mg/kg, po or 0.5 mg/kg, iv; type: ADME, organism-based, Canis lupus familiaris; settings: in vivo, read-out: Vdss
# [25] = Drug level in SCID mouse plasma xenografted with human NCI-H1703 cells at 100 mg/kg, po administered once daily via gavage for 21 days measured 4 hrs post-last dose; type: ADME, organism-based
# [26] = Drug level in SCID mouse plasma xenografted with human NCI-H1703 cells at 100 mg/kg, po administered once daily via gavage for 21 days measured 24 hrs post-last dose; type: ADME, organism-based
# [27] = Drug level in SCID mouse plasma xenografted with human NCI-H1703 cells assessed as free fraction at 100 mg/kg, po administered once daily via gavage for 21 days measured 4 hrs post-last dose; type: ADME, organism-based; settings: in vivo
# [28] = Drug level in SCID mouse plasma xenografted with human NCI-H1703 cells assessed as free fraction at 100 mg/kg, po administered once daily via gavage for 21 days measured 24 hrs post-last dose; type: ADME, organism-based; settings: in vivo
structure (smiles),measurement,setting,value
CO[C@H](C(=O)Nc1nnc(N[C@@H]2CCN(c3nccnn3)C2)s1)c1ccccc1,logD,[1]; read-out: logD,1.7
same,hepatocyte CLint,[2],3 µL/min/1e6 cells
same,microsomal CLint,[3],3 µL/min/mg
same,hepatocyte CLint,[4],4.1 µL/min/1e6 cells
same,clearance,[5],12 mL/min/kg
same,Vd,[6],0.6 L/kg
same,bioavailability,[7],41%
same,solubility thermodynamic,[8],516 µM
same,clearance,[9],1 mL/min/kg
same,bioavailability,[10],90%
same,Time,[11],24 h
Nc1nnc(N[C@@H]2CCN(c3ccc(NC(=O)Cc4ccccc4)nn3)C2)s1,solubility thermodynamic,[12],20 µM
same,logD,[1]; read-out: logD,0.85
O=C(Cc1ccccc1)Nc1nnc(CCSCCc2nnc(NC(=O)Cc3ccccc3)s2)s1,logD,[1]; read-out: logD,> 4
O=C(Cc1ccccc1)Nc1nnc(CCCc2nnc(NC(=O)Cc3ccccc3)s2)s1,solubility thermodynamic,[12],< 0.6 µM
same,logD,[1]; read-out: logD,3.6
Nc1nnc(N2CC[C@@H](Nc3nnc(NC(=O)Cc4ccccc4)s3)C2)s1,solubility thermodynamic,[12],95 µM
same,logD,[1]; read-out: logD,1.9
O=C(Cc1ccccc1)Nc1nnc(CCCCCc2nnc(NC(=O)Cc3ccccc3)s2)s1,solubility thermodynamic,[12],< 0.6 µM
O=C(Cc1ccccc1)Nc1nnc(N[C@@H]2CCN(c3nnc(NC(=O)Cc4ccccc4)s3)C2)s1,solubility thermodynamic,[12],< 0.8 µM
same,logD,[1]; read-out: logD,3.8
O=C(Cc1ccccc1)Nc1nnc(CCCCc2nnc(NC(=O)Cc3ccccc3)s2)s1,solubility thermodynamic,[12],< 0.4 µM
C[C@H](C(=O)Nc1nnc(N[C@@H]2CCN(c3cccnn3)C2)s1)c1ccccc1,logD,[1]; read-out: logD,2.6
same,microsomal CLint,[3],< 3 µL/min/mg
same,hepatocyte CLint,[4],8.7 µL/min/1e6 cells
same,clearance,[5],55 mL/min/kg
same,Vd,[6],1.9 L/kg
same,bioavailability,[7],0%
same,solubility thermodynamic,[8],329 µM
same,Time,[13],15 h
same,Time,[14],24 h
CN(CCN(C)c1nnc(NC(=O)Cc2ccccc2)s1)c1nnc(NC(=O)Cc2ccccc2)s1,solubility thermodynamic,[12],< 1 µM
same,logD,[1]; read-out: logD,3.5
CC(=O)N1CCCCC1CC(=O)Nc1nnc(N2CC[C@@H](Nc3nnc(NC(=O)Cc4ccccc4)s3)C2)s1 (some centres undefined),solubility thermodynamic,[12],20 µM
same,logD,[1]; read-out: logD,2.7
O=C(NCc1ccccc1)c1nnc(N[C@@H]2CCN(c3nccnn3)C2)s1,solubility thermodynamic,[12],> 228 µM
same,logD,[1]; read-out: logD,2.2
same,microsomal CLint,[3],3 µL/min/mg
O=C(NCc1ccccc1)c1nnc(N[C@@H]2CCN(c3cccnn3)C2)s1,solubility thermodynamic,[12],> 559 µM
same,logD,[1]; read-out: logD,2.24
same,microsomal CLint,[3],< 3 µL/min/mg
same,hepatocyte CLint,[4],31 µL/min/1e6 cells
same,clearance,[15],100 mL/min/kg
same,Vd,[16],2.7 L/kg
same,bioavailability,[17],12%
O=C(Cc1ccccc1)Nc1nnc(N[C@@H]2CCN(c3nnc(NC(=O)CC4CCOCC4)s3)C2)s1,solubility thermodynamic,[12],10 µM
same,logD,[1]; read-out: logD,3.2
O=C(Cc1ccccc1)Nc1nnc(N[C@@H]2CCN(c3cccnn3)C2)s1,solubility thermodynamic,[12],14 µM
same,logD,[1]; read-out: logD,2.2
same,hepatocyte CLint,[2],< 1 µL/min/1e6 cells
same,microsomal CLint,[3],3 µL/min/mg
same,hepatocyte CLint,[4],2 µL/min/1e6 cells
same,clearance,[5],50 mL/min/kg
same,Vd,[6],1.6 L/kg
same,bioavailability,[7],2%
same,Time,[18],10 h
same,CL/F,[19],101 mL/min/kg
CC(=O)Nc1nnc(N2CC[C@@H](Nc3nnc(NC(=O)Cc4ccccc4)s3)C2)s1,solubility thermodynamic,[12],3 µM
same,logD,[1]; read-out: logD,2.5
O=C(Cc1ccccc1)Nc1nnc(N[C@@H]2CCN(c3nccnn3)C2)s1,solubility thermodynamic,[12],94 µM
same,logD,[1]; read-out: logD,2.06
same,microsomal CLint,[3],< 3 µL/min/mg
same,hepatocyte CLint,[4],5 µL/min/1e6 cells
same,clearance,[20],54 mL/min/kg
same,Vd,[21],2 L/kg
same,bioavailability,[22],83%
Nc1nnc(N[C@@H]2CCN(c3nnc(NC(=O)Cc4ccccc4)s3)C2)s1,solubility thermodynamic,[12],5 µM
same,logD,[1]; read-out: logD,1.8
CN1CCC(CC(=O)Nc2nnc(N3CC[C@@H](Nc4nnc(NC(=O)Cc5ccccc5)s4)C3)s2)CC1,solubility thermodynamic,[12],150 µM
same,logD,[1]; read-out: logD,1.3
O=C(Cc1ccccc1)Nc1nnc(NCCNc2nnc(NC(=O)Cc3ccccc3)s2)s1,solubility thermodynamic,[12],< 3 µM
O=C(Cc1ccccc1)Nc1nnc(N[C@@H]2CCN(c3nncs3)C2)s1,solubility thermodynamic,[12],130 µM
same,logD,[1]; read-out: logD,2.1
O=C(Cc1ccccc1)Nc1nnc(NC[C@H]2CCN(c3nnc(NC(=O)Cc4ccccc4)s3)C2)s1,solubility thermodynamic,[12],< 0.8 µM
same,logD,[1]; read-out: logD,> 4.2
CO[C@H](C(=O)Nc1nnc(N[C@@H]2CCN(c3cccnn3)C2)s1)c1ccccc1,logD,[1]; read-out: logD,1.9
same,hepatocyte CLint,[2],< 1 µL/min/1e6 cells
same,microsomal CLint,[3],< 3 µL/min/mg
same,hepatocyte CLint,[4],4.6 µL/min/1e6 cells
same,clearance,[5],35 mL/min/kg
same,Vd,[6],2.4 L/kg
same,bioavailability,[7],47%
same,solubility thermodynamic,[23],78 µM
same,clearance,[9],4 mL/min/kg
same,Vd,[24],0.3 L/kg
same,bioavailability,[10],60%
same,concentration at 4 h,[25],3.57 µM
same,concentration at 24 h,[26],3.63 µM
same,Cp(f),[27],0.582 µM
same,Cp(f),[28],0.592 µM
same,Time,[13],24 h
O=C(Cc1ccccc1)Nc1nnc(N[C@@H]2CCC[C@H]2Nc2nnc(NC(=O)Cc3ccccc3)s2)s1,logD,[1]; read-out: logD,4.3
O=C(Cc1cccc(OC(F)(F)F)c1)Nc1ccc(CCCCc2nnc(NC(=O)Cc3ccccn3)s2)nn1,logD,[1],3.9
same,hepatocyte CLint,[2],8 µL/min/1e6 cells
same,microsomal CLint,[3],15 µL/min/mg
same,hepatocyte CLint,[4],30.2 µL/min/1e6 cells
same,clearance,[5],14 mL/min/kg
same,Vd,[6],3 L/kg
same,bioavailability,[7],32%
